Results reported in ChEMBL document CHEMBL3228022, “Synthesis of 2,3,4,4a,5,9b-hexahydro-1H-pyrido[4,3-b]indole derivatives and their central nervous system activities” (1979).
Activity calls are given as the source filed them. No cut-off for these calls is given here.

Key:
[1] = system: Rattus norvegicus; assay: Neuroleptic activity in Wistar HLA rat assessed as inhibition of methamphetamine-induced stereotyped behavior at 1 mg/kg, ip administered 20 mins before methamphetamine challenge measured every 30 mins for 3 hrs followed by every 1 hr for further 3 hrs; assay type: functional; parameters: Activity: scale not given: the % may be the effect or the level left; conditions: route intraperitoneal
[2] = system: Rattus norvegicus; assay: Neuroleptic activity in Wistar HLA rat assessed as inhibition of methamphetamine-induced stereotyped behavior at 10 mg/kg, ip administered 20 mins before methamphetamine challenge measured every 30 mins for 3 hrs followed by every 1 hr for further 3 hrs; assay type: functional; parameters: Activity: scale not given: the % may be the effect or the level left; conditions: route intraperitoneal; for inhibition in vivo at 10 mg/kg: Rattus norvegicus, Wistar HLA, ip
[3] = system: Rattus norvegicus; assay: Neuroleptic activity in Wistar HLA rat assessed as inhibition of methamphetamine-induced stereotyped behavior at 2 mg/kg, ip administered 20 mins before methamphetamine challenge measured every 30 mins for 3 hrs followed by every 1 hr for further 3 hrs; assay type: functional; parameters: Activity: scale not given: the % may be the effect or the level left; conditions: route intraperitoneal
[4] = system: Rattus norvegicus; assay: Neuroleptic activity in Wistar HLA rat assessed as inhibition of methamphetamine-induced stereotyped behavior at 5 mg/kg, ip administered 20 mins before methamphetamine challenge measured every 30 mins for 3 hrs followed by every 1 hr for further 3 hrs; assay type: functional; parameters: Activity: scale not given: the % may be the effect or the level left; conditions: route intraperitoneal
[5] = system: Mus musculus; assay: Neuroleptic activity in STD-ddy mouse assessed as catalepsy at 100 mg/kg, po measured up to 30 secs; assay type: functional, organism-based; parameters: dose 100 mg/kg
[6] = system: Mus musculus; assay: Neuroleptic activity in STD-ddy mouse assessed as inhibition of locomotion at 100 mg/kg, po measured for 3 mins; assay type: functional; conditions: 0.05 h
[7] = system: Mus musculus; assay: Neuroleptic activity in STD-ddy mouse assessed as muscle relaxation at 100 mg/kg, po after 20 mins; assay type: functional, organism-based; parameters: dose 100 mg/kg
[8] = system: Mus musculus; assay: Neuroleptic activity in STD-ddy mouse assessed as inhibition of locomotion at 10 mg/kg, po measured for 3 mins; assay type: functional; conditions: 0.05 h
[9] = system: Rattus norvegicus; assay: Neuroleptic activity in Wistar HLA rat assessed as stimulation of methamphetamine-induced stereotyped behavior at 10 mg/kg, ip administered 20 mins before methamphetamine challenge measured every 30 mins for 3 hrs followed by every 1 hr for further 3 hrs; assay type: functional; conditions: route intraperitoneal
[10] = system: Mus musculus; assay: Neuroleptic activity in po dosed STD-ddy mouse assessed as inhibition of methamphetamine-induced stereotyped behavior administered 100 mins before methamphetamine challenge measured for 20 mins; assay type: functional
[11] = system: Rattus norvegicus; assay: Neuroleptic activity in Wistar HLA rat assessed as stimulation of methamphetamine-induced stereotyped behavior at 2 mg/kg, ip administered 20 mins before methamphetamine challenge measured every 30 mins for 3 hrs followed by every 1 hr for further 3 hrs; assay type: functional; conditions: route intraperitoneal
[12] = system: Mus musculus; assay: Neuroleptic activity in po dosed STD-ddy mouse assessed as catalepsy measured up to 30 secs; assay type: functional
[13] = system: Mus musculus; assay: Neuroleptic activity in po dosed STD-ddy mouse assessed as inhibition of locomotion measured for 3 mins; assay type: functional; conditions: 0.05 h
[14] = system: Rattus norvegicus; assay: Neuroleptic activity in Wistar HLA rat assessed as stimulation of methamphetamine-induced stereotyped behavior at 5 mg/kg, ip administered 20 mins before methamphetamine challenge measured every 30 mins for 3 hrs followed by every 1 hr for further 3 hrs; assay type: functional; conditions: route intraperitoneal
[15] = system: Rattus norvegicus; assay: Neuroleptic activity in sc dosed Wistar HLA rat assessed as inhibition of apomorphine-induced gnawing administered 1 hr before apomorphine challenge measured 5 to 20 mins; assay type: functional
[16] = system: Mus musculus; assay: Neuroleptic activity in po dosed STD-ddy mouse assessed as inhibition of active avoidance; assay type: functional

Compound | Activity [1] [%] | Activity [3] [%] | Activity [5] | inhibition in vivo at 100 mg/kg [6] [%] | Activity [7] | inhibition in vivo at 10 mg/kg [8] [%] | other results
Cc1ccc2[nH]c3c(c2c1)CN(CCCC(=O)c1ccc(F)cc1)CC3.Cl | 0 | 0 |  |  |  |  | Activity [2]: 0%; Activity [4]: 0%
CCN1CC[C@H]2Nc3ccc(C)cc3[C@H]2C1 (mixture of isomers) |  |  | inactive | 54.7 |  |  | 
Cc1ccc2c(c1)[C@H]1CN(CCO)CC[C@H]1N2 (relative stereo) |  |  | inactive | 30.7 | inactive |  | 
CC(=O)CCN1CC[C@H]2Nc3ccc(C)cc3[C@H]2C1 (relative stereo) |  |  | inactive | 38.8 | inactive |  | 
Cc1ccc2c(c1)[C@H]1CN(CCCN(C)C)CC[C@H]1N2 (relative stereo) |  |  | inactive | 12.3 | inactive |  | 
Cc1ccc2c(c1)[C@H]1CN(Cc3ccccc3)CC[C@H]1N2 (relative stereo) |  |  | inactive | 35.3 | inactive |  | 
Cc1ccc2c(c1)[C@H]1CN(CC(=O)c3ccccc3)CC[C@H]1N2 (relative stereo) |  |  | inactive | 29.8 | inactive |  | 
Cc1ccc2c(c1)[C@H]1CN(CCCN3c4ccccc4Sc4cc(Cl)ccc43)CC[C@H]1N2.Cl (relative stereo) | 0 | 0 |  | 96.9 | inactive | 56.6 | Activity [2]: 0%; Activity [4]: 0%
Cc1ccc2c(c1)[C@H]1CN(CCCC(c3ccc(F)cc3)c3ccc(F)cc3)CC[C@H]1N2 (relative stereo) |  |  |  | 90.7 | inactive | -73 | 
Cl.O=C(CCCN1CC[C@H]2Nc3ccccc3[C@H]2C1)c1ccc(F)cc1 (relative stereo) | 0 | 0 |  | 77.7 |  | -6 | inhibition in vivo at 10 mg/kg [2]: 25%; Activity [4]: 0%
Cl.O=C(CCCN1CC[C@H]2Nc3ccc(F)cc3[C@H]2C1)c1ccc(F)cc1 (relative stereo) | 0 | 0 |  | 91.2 |  | 47.2 | inhibition in vivo at 10 mg/kg [2]: 50%; inhibition in vivo at 5 mg/kg ([4]; Rattus norvegicus, Wistar HLA, ip): 25%
Cc1ccc2c(c1)[C@H]1CN(CCCC(=O)c3ccc(F)cc3)CC[C@H]1N2.Cl (relative stereo) | 0 |  | Active | 97.8 | Active | 75.9 | Activity [9]: 50%; ED50 [10]: 23.8 mg/kg; Activity [11]: 50%; ED50 [12]: 15.3 mg/kg; ED50 [13]: 9.3 mg/kg; Activity [14]: >75%; ED50 [15]: 16.5 mg/kg; ED50 [16]: 10 mg/kg
CCc1ccc2c(c1)[C@H]1CN(CCCC(=O)c3ccc(F)cc3)CC[C@H]1N2.Cl (relative stereo) |  |  | inactive | 44 | inactive |  | Activity [9]: >75%; Activity [11]: 25%; Activity [14]: >75%
COc1ccc2c(c1)[C@H]1CN(CCCC(=O)c3ccc(F)cc3)CC[C@H]1N2.Cl (relative stereo) | 0 | 0 |  | 96.7 | Active | 61.7 | inhibition in vivo at 10 mg/kg [2]: 25%; Activity [4]: 0%
